In patent US6753000B2, “Hydroxystilbene/ascorbic acid compositions for treating skin afflictions” (L'Oreal, priority 1999, dated 2004):

Test system: normal human dermal fibroblast cultures
Assay: Incorporation of radioactive (tritiated) thymidine into normal human dermal fibroblast cultures (fibroblast proliferation)
Type: cell-based
Details: for % (thymidine incorporation relative to untreated control = 100) / cpm (counts per minute), tritiated thymidine incorporated: 48 hours contact, 24 hours labeling, EGF 1.67 × 10^−3 μM, vitamin C 20 μM, resveratrol 5 μM, or 5 μM resveratrol + 20 μM vitamin C; for cpm (counts per minute), tritiated thymidine incorporated: untreated control 10320; for %, difference relative to the untreated control / cpm, difference relative to the untreated control: same treatments, value in brackets
Description: The study has carried out by measuring the incorporation of radioactive thymidine into normal human dermal fibroblast cultures.
The fibroblast cultures were prepared according to the standard methods of cell culturing, i.e., in MEM/M199 medium marketed by Gibco, in the presence of sodium bicarbonate (1.87 mg/ml), L-glutamine (2 mM), penicillin (50 IU/ml) and 10% foetal calf serum (Gibco).
The test was carried out on cell cultures at 80% of confluence on 24-well plates. Resveratrol, at a concentration of 1.25 μM and 5 μM, was placed in contact with the cells for 48 hours. Labeling with tritiated thymidine ([methyl-3H] thymidine marketed by Amersham, 82 Ci/mmol) was carried out for 24 hours.
The level of tritiated thymidine incorporated was measured at the end of the test by acidic precipitation of the proteins on filters and counting by liquid scintillation.
The results were evaluated relative to a control consisting of cells which had not been treated.
A positive control [EGF: Epidermal Growth Factor] at 1.67×10^−3 μM, which was known to stimulate fibroblast proliferation, was introduced into the test by way of reference.

Row | Compound | % (thymidine incorporation relative to untreated control = 100) [%] | cpm (counts per minute), tritiated thymidine incorporated [cpm] | %, difference relative to the untreated control | cpm, difference relative to the untreated control
1 | Oc1ccc(C=Cc2cc(O)cc(O)c2)cc1 [resveratrol, 3,4′,5-Trihydroxystilbene] | 110 | 11365 | +10% | (+1045) cpm
2 | O=C1O[C@H]([C@@H](O)CO)C(O)=C1O [vitamin C, ascorbic acid] | 132 | 13595 | +32% | (+3275) cpm
3 | EGF: Epidermal Growth Factor, positive control known to stimulate fibroblast proliferation | 283 | 29214 | +183% | (+18894) cpm
